In one assay the test system is 639-V. As to the kind of experiment: OncoPanel cell proliferation assay (10-day). The class given is cell-based, human. The settings on record: for EC50 / GI50 / IC50: Homo sapiens, Bladder; for EC50: read-out: Cell Count EC50; for GI50: read-out: Cell Count GI50; for IC50: read-out: Cell Count IC50.
In the next assay the target is T1, BRD2(2) (h) bromodomain (Homo sapiens, UniProt P25440).
T1 construct: Bromodomain
As to the kind of experiment: Epigenetic binding assay, Bromodomain. As to conditions: read-out: % Inhibition of Control Specific Binding.

Another assay deals with T2, BRDT(1) (h) bromodomain (Homo sapiens, UniProt Q58F21).
T2 construct: Bromodomain; Eurofins CEREP (France), contract laboratory
As to the kind of experiment: Epigenetic binding assay, Bromodomain. As to conditions: read-out: % Inhibition of Control Specific Binding.

The next assay concerns the target T3, L3MBTL3 (h) MBT domain (Homo sapiens, UniProt Q96JM7).
T3 construct: Tudor, MBT and chromo domains gauge the degree of lysine methylation; Eurofins CEREP (France), contract laboratory
T3 sequence (Q96JM7 225-555 limits assumed): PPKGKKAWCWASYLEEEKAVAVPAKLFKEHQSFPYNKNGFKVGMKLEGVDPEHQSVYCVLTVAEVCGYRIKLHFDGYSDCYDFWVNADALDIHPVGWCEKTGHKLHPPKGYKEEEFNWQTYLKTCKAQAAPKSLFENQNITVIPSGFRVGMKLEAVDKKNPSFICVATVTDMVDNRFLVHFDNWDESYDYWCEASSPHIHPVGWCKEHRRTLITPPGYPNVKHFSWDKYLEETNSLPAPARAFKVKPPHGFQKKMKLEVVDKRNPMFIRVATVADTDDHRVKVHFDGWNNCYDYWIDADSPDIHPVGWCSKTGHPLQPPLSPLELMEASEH
As to the kind of experiment: Epigenetic binding assay, MBT domain. As to conditions: read-out: % Inhibition of Control Specific Binding.

The target in another assay is HDAC2 (h) (Homo sapiens, UniProt Q92769). As to the kind of experiment: Epigenetic enzyme assay, Histone deacetylase (HDACs). Type of assay: biochemical. The settings on record: read-out: % Inhibition of Control Values.
Another assay has as its target ASH1L (Homo sapiens, UniProt Q9NR48). As to the kind of experiment: Epigenetic enzyme assay, Methyltransferases (MTs). The class given is biochemical. The settings on record: for inhibition at 10 µM: read-out: % Inhibition of Control Values.
Another assay concerns the target PRDM9 (h) (Homo sapiens, UniProt Q9NQV7). As to the kind of experiment: Epigenetic enzyme assay, Methyltransferases (MTs). Type of assay: biochemical. As to conditions: for inhibition at 10 µM: read-out: % Inhibition of Control Values.
Assay [1] addresses T4, Thiopurine S-methyltransferase (h) (Homo sapiens, UniProt P51580).
T4 sequence (P51580 1-245): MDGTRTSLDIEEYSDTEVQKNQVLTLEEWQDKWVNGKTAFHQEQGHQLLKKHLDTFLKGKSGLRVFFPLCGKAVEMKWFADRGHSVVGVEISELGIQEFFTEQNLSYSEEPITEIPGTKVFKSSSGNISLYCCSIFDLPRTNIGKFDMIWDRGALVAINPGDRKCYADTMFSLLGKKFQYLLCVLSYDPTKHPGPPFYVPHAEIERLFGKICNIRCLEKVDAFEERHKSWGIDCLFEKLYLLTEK
As to the kind of experiment: Epigenetic enzyme assay, Small molecule methyltransferases. As to conditions: read-out: % Inhibition of Control Values. Type of assay: biochemical.

Assay [2] concerns the target T5, Angiotensin Converting Enzyme (Oryctolagus cuniculus, UniProt P12822).
T5 construct: from tissue; host or cells: rabbit lung
T5 sequence (P12822 34-1310): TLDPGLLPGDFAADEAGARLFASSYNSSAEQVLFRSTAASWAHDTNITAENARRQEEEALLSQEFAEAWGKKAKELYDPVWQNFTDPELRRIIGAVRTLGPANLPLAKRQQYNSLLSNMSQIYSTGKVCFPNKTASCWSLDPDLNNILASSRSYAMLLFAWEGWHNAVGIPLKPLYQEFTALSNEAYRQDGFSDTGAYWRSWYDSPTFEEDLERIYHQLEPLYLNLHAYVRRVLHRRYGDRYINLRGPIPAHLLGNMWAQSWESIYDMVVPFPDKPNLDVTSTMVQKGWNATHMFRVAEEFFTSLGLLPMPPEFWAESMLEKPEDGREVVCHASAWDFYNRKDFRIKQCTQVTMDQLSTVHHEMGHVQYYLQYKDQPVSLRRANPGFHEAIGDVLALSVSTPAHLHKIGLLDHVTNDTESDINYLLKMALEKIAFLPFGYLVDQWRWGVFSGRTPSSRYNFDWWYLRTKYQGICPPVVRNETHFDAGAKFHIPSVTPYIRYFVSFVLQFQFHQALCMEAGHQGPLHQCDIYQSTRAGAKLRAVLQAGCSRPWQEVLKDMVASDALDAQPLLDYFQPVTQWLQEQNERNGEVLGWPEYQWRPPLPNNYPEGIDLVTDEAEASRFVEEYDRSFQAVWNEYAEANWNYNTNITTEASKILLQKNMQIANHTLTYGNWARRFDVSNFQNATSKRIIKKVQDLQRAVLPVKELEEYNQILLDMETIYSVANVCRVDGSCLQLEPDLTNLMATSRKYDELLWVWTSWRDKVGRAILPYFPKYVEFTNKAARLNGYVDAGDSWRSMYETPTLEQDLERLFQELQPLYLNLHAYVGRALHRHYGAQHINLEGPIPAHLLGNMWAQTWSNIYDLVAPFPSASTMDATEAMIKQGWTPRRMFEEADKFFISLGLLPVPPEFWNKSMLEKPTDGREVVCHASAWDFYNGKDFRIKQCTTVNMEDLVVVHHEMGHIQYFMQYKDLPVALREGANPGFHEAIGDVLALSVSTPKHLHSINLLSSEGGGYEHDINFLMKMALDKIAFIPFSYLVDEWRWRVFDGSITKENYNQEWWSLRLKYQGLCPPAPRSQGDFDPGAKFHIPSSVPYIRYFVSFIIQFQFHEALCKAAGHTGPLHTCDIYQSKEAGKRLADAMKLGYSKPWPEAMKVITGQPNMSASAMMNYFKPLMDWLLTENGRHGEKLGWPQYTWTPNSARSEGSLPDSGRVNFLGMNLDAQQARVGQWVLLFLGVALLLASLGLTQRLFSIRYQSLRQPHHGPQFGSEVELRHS
As to the kind of experiment: Peptidase, Angiotensin Converting Enzyme. The settings on record: assay year 2015. The class given is biochemical, Rabbit. As to the method: The in vitro pharmacological studies were conducted by Eurofins PanLab (Taiwan) using the parameters shown in Table 13 with respect to appropriate literature references.

HDAC2 (h), sequence (Q92769 whole entry): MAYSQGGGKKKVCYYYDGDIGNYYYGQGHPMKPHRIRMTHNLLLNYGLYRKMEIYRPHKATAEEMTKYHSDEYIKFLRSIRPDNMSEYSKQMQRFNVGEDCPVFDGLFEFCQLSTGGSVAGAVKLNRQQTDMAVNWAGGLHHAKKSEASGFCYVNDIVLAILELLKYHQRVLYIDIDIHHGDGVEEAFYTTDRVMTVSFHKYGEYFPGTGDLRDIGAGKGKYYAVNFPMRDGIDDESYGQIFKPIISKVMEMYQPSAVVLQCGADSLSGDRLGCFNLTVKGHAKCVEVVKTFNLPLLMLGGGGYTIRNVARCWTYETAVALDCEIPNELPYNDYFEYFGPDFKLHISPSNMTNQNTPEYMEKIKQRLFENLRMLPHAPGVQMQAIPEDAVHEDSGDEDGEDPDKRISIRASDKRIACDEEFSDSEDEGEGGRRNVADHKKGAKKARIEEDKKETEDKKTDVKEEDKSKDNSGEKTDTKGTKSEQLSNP
T1 sequence (P25440 344-453 limits assumed): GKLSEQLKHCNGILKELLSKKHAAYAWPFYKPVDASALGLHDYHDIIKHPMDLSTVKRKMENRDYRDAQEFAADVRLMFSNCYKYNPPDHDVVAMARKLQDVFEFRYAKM
PRDM9 (h), sequence (Q9NQV7 whole entry): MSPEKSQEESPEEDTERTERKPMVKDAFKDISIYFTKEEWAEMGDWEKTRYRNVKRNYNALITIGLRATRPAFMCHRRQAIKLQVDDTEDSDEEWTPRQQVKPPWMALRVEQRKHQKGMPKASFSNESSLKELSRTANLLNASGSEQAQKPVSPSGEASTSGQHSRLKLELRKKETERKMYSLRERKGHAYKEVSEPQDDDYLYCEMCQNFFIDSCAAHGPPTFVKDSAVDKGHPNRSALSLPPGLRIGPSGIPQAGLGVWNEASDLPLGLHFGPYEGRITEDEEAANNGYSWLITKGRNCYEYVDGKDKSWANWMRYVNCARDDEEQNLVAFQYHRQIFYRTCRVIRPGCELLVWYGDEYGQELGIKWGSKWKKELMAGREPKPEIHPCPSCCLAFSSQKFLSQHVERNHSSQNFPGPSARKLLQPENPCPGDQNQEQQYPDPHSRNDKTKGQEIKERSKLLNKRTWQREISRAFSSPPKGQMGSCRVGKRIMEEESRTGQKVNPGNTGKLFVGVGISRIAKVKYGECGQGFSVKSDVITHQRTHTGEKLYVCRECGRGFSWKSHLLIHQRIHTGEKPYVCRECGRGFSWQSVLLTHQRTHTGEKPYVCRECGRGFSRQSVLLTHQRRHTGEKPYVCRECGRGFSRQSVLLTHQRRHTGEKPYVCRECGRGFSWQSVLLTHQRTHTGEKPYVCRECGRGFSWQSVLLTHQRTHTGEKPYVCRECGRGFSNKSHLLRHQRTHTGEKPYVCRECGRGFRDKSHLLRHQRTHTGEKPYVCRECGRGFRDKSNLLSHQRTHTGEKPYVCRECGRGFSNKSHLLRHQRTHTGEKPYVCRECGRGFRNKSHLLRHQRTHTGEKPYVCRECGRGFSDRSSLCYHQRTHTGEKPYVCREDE

A word on the EC50: it is the concentration giving half of the maximal effect. As a reminder, the GI50 is the concentration at which growth is held to half of that of the control. The IC50 is the concentration at which inhibition is half-maximal. As for `CC(C)=CCC[C@H](C)[C@@H]1CC[C@@H](C)c2c1cc(C)c(O)c2O` [Compound 4, 7,8-dihydroxyserrulat-14-ene], in the assay with 639-V, the EC50 turned out to be 12 µM, the 50% growth inhibitory concentration (GI50) was 12 µM and the IC50 was found to be 12 µM.

Broadly, the inhibition is the drop in the measured response relative to a control, in per cent. Consider `CC(C)=CCC[C@@H]1COc2c(C)cc(O)c3c2[C@H]1CC[C@H]3C` [Compound 3, 5,18-epoxy-8-hydroxyserrulat-14-ene], for which the inhibition at 10 µM on BRD2(2) (h) bromodomain was 18%; at BRDT(1) (h) bromodomain, 29%; at L3MBTL3 (h) MBT domain, 33%; at HDAC2 (h), -2%; on ASH1L, -54%; on PRDM9 (h) it was 4%. Further, the inhibition at 10 µM in [1] was 19%. Also, the % control response at 10 µM in assay [2] was -3%.

As to `CC(C)=CCC[C@@H]1C(O)Oc2c(C)cc(O)c3c2[C@H]1CC[C@H]3C` (stereo partly drawn) [Compound 2, 5,18-epoxyserrulat-14-en-8,18-diol], the inhibition at 10 µM stood at 22% on BRD2(2) (h) bromodomain; 23% at BRDT(1) (h) bromodomain; 29% at L3MBTL3 (h) MBT domain; 0% on HDAC2 (h); 20% at ASH1L; 5% at PRDM9 (h). For the same molecule, the inhibition at 10 µM in assay [1] worked out at 28%. In addition, the % control response at 10 µM in assay [2] is -3%. Besides, in the assay with 639-V, the EC50 came out at 6.54 µM. Besides, the GI50 in the assay on 639-V stood at 7.98 µM. The concentration for half-maximal inhibition (IC50) in the assay on 639-V is 8 µM.

For the molecule `Nc1ncnc2c1ncn2[C@@H]1O[C@H](CSCC[C@H](N)C(=O)O)[C@@H](O)[C@H]1O` [SAH], the IC50 at ASH1L (read-out: Reference IC50) was determined as 9.1 µM; at PRDM9 (h) (read-out: Reference IC50), 370 µM.

For `CC(C)=CCC[C@H](CO)[C@@H]1CC[C@@H](C)c2c1cc(C)c(O)c2O` [Compound 1, 7,8,18-trihydroxyserrulat-14-ene], the inhibition at 10 µM at BRD2(2) (h) bromodomain was 58%; on BRDT(1) (h) bromodomain, 43%; at L3MBTL3 (h) MBT domain it was 22%; on HDAC2 (h), 1%; at ASH1L, 3%; on PRDM9 (h), 9%. The inhibition at 10 µM in assay [1] turned out to be 40%. Besides, the % control response at 10 µM in assay [2] was found to be 0%. In addition, the “Relative cell count (%) Mean” value was determined as 15.8% in the assay with 639-V (3.00E+00 microM); 0.0% in the assay with 639-V (3.00E+01 microM); 92.6% with 639-V (3.01E−01 microM); 103.6% in the assay on 639-V (3.01E−02 microM); 96.1% with 639-V (3.02E−03 microM); 0.3% in the assay on 639-V (9.49E+00 microM). Moreover, the “Relative cell count (%) Mean” value in the assay with 639-V (9.51E−01 microM) turned out to be 91.9%; in the assay on 639-V (9.52E−02 microM), 91.6%; in the assay with 639-V (9.53E−03 microM) it was 101.2%; in the assay with 639-V (9.55E−04 microM) it was 92.0%. Also, the EC50 with 639-V was determined as 2.01 µM. Moreover, the GI50 in the assay on 639-V was determined as 2.01 µM. Further, the IC50 in the assay with 639-V turned out to be 2.01 µM.

The record behind these values is US11331299B2, “Medicinal use of serrulatane diterpenes” (The University of Sydney, priority 2016, dated 2022).
